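Cultured in 96-well plates, cells were exposed to test compound for 48 hours across five concentrations. Here, GI50 denotes the concentration required for 50% inhibition of growth. Definition used: TGI = concentration required for complete inhibition of growth.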

Some test systems named below: HT29 colon; SF-268 CNS; T-47D breast; SK-MEL-28 melanoma; SR leukemia; SNB-75 CNS; SK-OV-3 ovarian; MDA-MB-231 breast; MALME-3M melanoma; HL-60(TB) leukemia.
What all share (test): inhibition of tumour cell growth, NCI panel, 48 h

As to `COC(=O)N1CC2C3C4CC(C(c5ccccc5)=C4c4ccccc4)C3C21` (stereo not drawn), the TGI amounted to 37.7 µM with HT29 colon; 33.7 µM in the test with SF-268 CNS; 32.9 µM in the test on T-47D breast; 35.4 µM with SK-MEL-28 melanoma; 51.1 µM in the test on SR leukemia; 76.4 µM in the test with SNB-75 CNS. The results for the TGI in the test with SK-OV-3 ovarian and in the test with MDA-MB-231 breast were 70.2 µM and 22.3 µM, respectively.

On to `COC(=O)c1cnc(Cl)cn1`, for which the TGI in the test with HT29 colon, in the test on MALME-3M melanoma, in the test on SF-268 CNS, in the test with T-47D breast, in the test with SK-MEL-28 melanoma and in the test on SR leukemia was more than 100 µM in each case. Further, the TGI with SNB-75 CNS, in the test on SK-OV-3 ovarian, in the test with MDA-MB-231 breast and in the test on HL-60(TB) leukemia was more than 100 µM throughout.

With `CC(C)C(N)=O`, the TGI in the test on HT29 colon, in the test on MALME-3M melanoma, in the test with SF-268 CNS, with SK-MEL-28 melanoma, with SR leukemia and in the test with SNB-75 CNS was more than 5000 µM throughout. Also, the TGI with SK-OV-3 ovarian and in the test on HL-60(TB) leukemia was more than 5000 µM in each case.

For the molecule `O=C(O)/C(Cc1ccc([N+](=O)[O-])cc1)=N\O`, the TGI in the test on HT29 colon, in the test with MALME-3M melanoma, with SF-268 CNS, in the test on T-47D breast, in the test on SK-MEL-28 melanoma and with SK-OV-3 ovarian was more than 100 µM each time. Moreover, the TGI in the test on MDA-MB-231 breast and in the test on HL-60(TB) leukemia was more than 100 µM throughout.

Regarding `O=C(Nc1ccc(-n2ccc3c(NC(=O)c4ccccc4)ncnc32)cc1)Nc1cccc(Cl)c1Cl`, the GI50 with HT29 colon was 0.808 µM; with MALME-3M melanoma, 1.04 µM; with SF-268 CNS, 1.1 µM; in the test with T-47D breast it was 2.17 µM; with SK-MEL-28 melanoma, 0.99 µM; with SR leukemia, 0.659 µM. Moreover, the GI50 was 0.777 µM in the test with SNB-75 CNS, 1.02 µM in the test on MDA-MB-231 breast and 13.6 µM in the test with HL-60(TB) leukemia. For the same molecule, the TGI in the test on HT29 colon was found to be 2.11 µM; in the test on MALME-3M melanoma, 4.13 µM; in the test with SF-268 CNS, 3.13 µM; with T-47D breast, 9.22 µM; with SK-MEL-28 melanoma it was 2.45 µM; in the test with SR leukemia it was 2.92 µM. Moreover, the TGI is 2.71 µM in the test with SNB-75 CNS, 3.05 µM in the test on MDA-MB-231 breast and more than 50 µM in the test on HL-60(TB) leukemia.

With `CCOC(=O)CC1(c2cccc3ccccc23)OC(=O)c2ccccc21` (stereo not drawn), the TGI in the test on HT29 colon is more than 100 µM; in the test with MALME-3M melanoma it was 96.2 µM; with SF-268 CNS, more than 100 µM; in the test with SK-MEL-28 melanoma, more than 100 µM; in the test with SNB-75 CNS it was 75.8 µM; in the test on SK-OV-3 ovarian it was more than 100 µM. In addition, the TGI in the test with HL-60(TB) leukemia was found to be 54.1 µM.

In the case of `O=C(O)CC1NCc2cc3ccccc3nc21` (stereo not drawn), the TGI with HT29 colon, in the test with MALME-3M melanoma, in the test with SF-268 CNS, with T-47D breast, in the test with SK-MEL-28 melanoma and in the test on SR leukemia was more than 100 µM in each case. Besides, the TGI in the test with SNB-75 CNS, with SK-OV-3 ovarian, in the test with MDA-MB-231 breast and in the test with HL-60(TB) leukemia was more than 100 µM throughout.

Take `CC(=O)NC1=C[C@@H]([C@H]2COC(C)(C)O2)OC1=O`: the TGI with HT29 colon, in the test on MALME-3M melanoma, in the test with SF-268 CNS, with SK-MEL-28 melanoma, in the test on SNB-75 CNS and in the test on SK-OV-3 ovarian was more than 100 µM in each case. Further, in the test with HL-60(TB) leukemia, the TGI was more than 100 µM.

For the molecule `O=C1Nc2ccc(Cl)cc2/C1=C\c1c(Cl)nc2sccn12`, the TGI in the test on MALME-3M melanoma, with SF-268 CNS, with T-47D breast, in the test on SK-MEL-28 melanoma, in the test with SR leukemia and with SNB-75 CNS was more than 100 µM each time. The TGI in the test on SK-OV-3 ovarian was more than 100 µM; in the test on MDA-MB-231 breast it was more than 100 µM; in the test on HL-60(TB) leukemia, 33.7 µM.

`C=C(OC1C(C)=C2C(C1OC(=O)CCCCCCC)C(C)(OC(C)=O)CC(OC(=O)CCC)C1(O)C2OC(=O)C1(C)O)/C(C)=C/C` (stereo not drawn): the GI50 with HT29 colon was less than 0.0001 µM; in the test on MALME-3M melanoma, 0.000907 µM; in the test on SF-268 CNS, less than 0.0001 µM; in the test on SNB-75 CNS, less than 0.0001 µM; with HL-60(TB) leukemia, less than 0.0001 µM. Besides, the TGI in the test on HT29 colon turned out to be 1.8 µM; in the test with MALME-3M melanoma, 0.131 µM; in the test on SF-268 CNS it was 16.7 µM; with SK-MEL-28 melanoma, 3.97 µM; in the test with SNB-75 CNS it was 1.61 µM; in the test on SK-OV-3 ovarian, 16.9 µM.

Take `c1csc(C[N+]23CN4CN(CN(C4)C2)C3)c1`: the TGI is more than 100 µM in the test on HT29 colon; 33.2 µM in the test with MALME-3M melanoma; more than 100 µM with SF-268 CNS; more than 100 µM in the test with SK-MEL-28 melanoma; 35.9 µM in the test with SR leukemia; more than 100 µM with SNB-75 CNS. This molecule registered a TGI in the test on HL-60(TB) leukemia of 33.2 µM.

For the origin of these results see PubChem BioAssay (NCI).
